Measured values published in the supplement of paper PMC10307832.

How the values were obtained:
Test in all cases: relative viability (nuclei count vs DMSO), 5 days (fraction); higher = more cells survive
R406 + Phenformin = compound: COc1cc(Nc2ncc(F)c(Nc3ccc4c(n3)NC(=O)C(C)(C)O4)n2)cc(OC)c1OC [R406] + N=C(N)NC(=N)NCCc1ccccc1 [Phenformin] (partner 250 µM)
In short: (§1)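 A single step with final 0.05% Triton X-100, 1% formaldehyde and 1 ug/ml Hoechst fixed the cells and stained nuclei 5 days after treatment. Lung cancer cell lines in 1536-well plates had been treated by pin tool the day after seeding with one drug alone or a fixed anchor-drug dose plus five library-drug doses (not always all listed) in √10 steps, and nuclei were counted on 4× images. Relative viability is the ratio of nuclei in treated wells to nuclei in vehicle wells, taken as the median of duplicate plates.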

Daporinad + Lapatinib = compound: O=C(/C=C/c1cccnc1)NCCCCC1CCN(C(=O)c2ccccc2)CC1 [Daporinad] + CS(=O)(=O)CCNCc1ccc(-c2ccc3ncnc(Nc4ccc(OCc5cccc(F)c5)c(Cl)c4)c3c2)o1 [Lapatinib] (partner 2 µM)
In short: as §1

Daporinad + Bortezomib = compound: O=C(/C=C/c1cccnc1)NCCCCC1CCN(C(=O)c2ccccc2)CC1 [Daporinad] + CC(C)C[C@H](NC(=O)[C@H](Cc1ccccc1)NC(=O)c1cnccn1)B(O)O [Bortezomib] (partner 0.002 µM)
In short: as §1

R406 + Tozasertib = compound: COc1cc(Nc2ncc(F)c(Nc3ccc4c(n3)NC(=O)C(C)(C)O4)n2)cc(OC)c1OC [R406] + Cc1cc(Nc2cc(N3CCN(C)CC3)nc(Sc3ccc(NC(=O)C4CC4)cc3)n2)n[nH]1 [Tozasertib] (partner 0.1 µM)
In short: as §1

Row | Cell Line | relative viability (R406 + Phenformin; first compound 0.08 µM) | relative viability (R406 + Phenformin; first compound 0.253 µM) | relative viability (R406 + Phenformin; first compound 0.8 µM) | relative viability (R406 + Phenformin; first compound 2.53 µM) | relative viability (R406 + Phenformin; first compound 8 µM) | relative viability (Daporinad + Lapatinib; first compound 0.0005 µM) | relative viability (Daporinad + Lapatinib; first compound 0.001581 µM) | relative viability (Daporinad + Lapatinib; first compound 0.005 µM) | relative viability (Daporinad + Lapatinib; first compound 0.01581 µM) | relative viability (Daporinad + Bortezomib; first compound 0.0005 µM) | relative viability (Daporinad + Bortezomib; first compound 0.001581 µM) | relative viability (Daporinad + Bortezomib; first compound 0.005 µM) | relative viability (Daporinad + Bortezomib; first compound 0.01581 µM) | relative viability (R406 + Tozasertib; first compound 0.08 µM) | relative viability (R406 + Tozasertib; first compound 0.253 µM) | relative viability (R406 + Tozasertib; first compound 0.8 µM) | relative viability (R406 + Tozasertib; first compound 2.53 µM) | relative viability (R406 + Tozasertib; first compound 8 µM)
1 | HCC-366 | 0.627 | 0.622 | 0.721 | 0.521 | 0.254 | 1.06 | 1.02 | 1.08 | 1.02 | 0.971 | 1.1 | 1.12 | 1.04 | 0.101 | 0.0718 | 0.133 | 0.0575 | 0.0313
2 | HCC-827 | 0.436 | 0.401 | 0.439 | 0.265 | 0.215 | 0.454 | 0.19 | 0.212 | 0.191 | 1.06 | 0.965 | 1.14 | 1.13 | 0.421 | 0.463 | 0.45 | 0.386 | 0.233
3 | HOP-62 | 0.661 | 0.783 | 0.631 | 0.71 | 0.658 |  | 1.13 | 1.04 | 0.505 |  | 0.84 | 0.962 | 0.26 | 0.356 | 0.456 | 0.362 | 0.366 | 0.554
4 | LC-2-ad | 0.592 | 0.561 | 0.579 | 0.384 | 0.25 | 0.959 | 1.03 | 0.936 | 0.972 | 0.978 | 1.07 | 0.952 | 0.844 | 0.509 | 0.482 | 0.368 | 0.422 | 0.351
5 | LCLC-97TM1 | 0.351 | 0.407 | 0.379 | 0.251 | 0.351 | 0.813 | 0.795 | 1.2 | 0.797 | 0.302 | 0.604 | 0.657 | 0.533 | 0.217 | 0.318 | 0.209 | 0.216 | 0.226
6 | LOU-NH91 | 0.711 | 0.72 | 0.713 | 0.416 | 0.391 | 0.767 | 0.788 | 0.932 | 0.952 | 0.532 | 0.465 | 0.559 | 0.559 | 0.723 | 0.764 | 0.644 | 0.472 | 0.466
7 | LU99A | 0.789 | 0.99 | 0.95 | 0.556 | 0.759 | 0.839 | 1.14 | 0.98 | 1.17 | 1.11 | 1.17 | 1.36 | 1.44 | 0.274 | 0.312 | 0.246 | 0.313 | 0.265
8 | LXF-289 | 0.517 | 0.543 | 0.533 | 0.38 | 0.4 | 0.847 | 0.989 | 0.91 | 0.95 | 0.965 | 1.08 | 1.05 | 1.07 | 0.192 | 0.178 | 0.197 | 0.183 | 0.067
9 | NCI-H23 | 0.693 | 0.821 | 0.775 |  | 0.355 | 1.17 | 0.987 | 0.94 | 0.41 | 1.18 | 0.919 | 0.888 | 0.427 | 0.35 | 0.394 | 0.511 |  | 0.148
